Source: patent EP0068715A1, “Beta-lactam antibacterial agents, their preparation and use” (BEECHAM GROUP PLC, priority 1981, dated 1983)

Assays:
Assay in all cases: standard MIC synergy test with amoxycillin
Type in all cases: cell-based
Conditions in all cases: amoxycillin alone, β-Lactamase Inhibitor: None
[1] = test system: E. coli JT39
Text: (§1) In a standard MIC synergy test, the following data were obtained for the compounds of this invention:-

[2] = test system: Proteus C889
Text: as §1

[3] = test system: Kleb. E70
Text: as §1

Compound: CC1(C)S[C@@H]2[C@H](NC(=O)[C@H](N)c3ccc(O)cc3)C(=O)N2[C@H]1C(=O)O [amoxycillin]
- MIC of amoxycillin (μg/ml) E. coli JT39 [1]: 2000 µg/mL
- MIC of amoxycillin (μg/ml) Proteus C889 [2]: >2000 µg/mL
- MIC of amoxycillin (μg/ml) Kleb. E70 [3]: 500 µg/mL
